Data taken from patent US20230250066A1, “HERBICIDAL CINNOLINE DERIVATIVES” (SYNGENTA CROP PROTECTION AG, priority 2020, published 2023).

Tests used:
Format in all cases: in vivo
[1] = system: Amaranthus retoflexus (AMARE); assay: Pre-emergence herbicidal test; conditions: 1000 g/ha, evaluated after 13 days
Setaria faberi (SETFA) [2] = assay: Pre-emergence herbicidal test; conditions: 1000 g/ha, evaluated after 13 days
[3] = system: Echinochloa crus-galli (ECHCG); assay: Pre-emergence herbicidal test; conditions: 1000 g/ha, evaluated after 13 days
[4] = system: Ipomoea hederacea (IPOHE); assay: Pre-emergence herbicidal test; conditions: 1000 g/ha, evaluated after 13 days
[5] = system: Abutilon theophrasti (ABUTH); assay: Pre-emergence herbicidal test; conditions: 1000 g/ha, evaluated after 13 days
Zea mays (ZEAMX) [6] = assay: Pre-emergence herbicidal test; conditions: 1000 g/ha, evaluated after 13 days
[7] = system: Abutilon theophrasti (ABUTH); assay: Post-emergence herbicidal test; conditions: 1000 g/ha unless otherwise stated, evaluated after 13 days
Procedure, shortened: (§1)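 Damage score (0–5; 5=81-100%, 1=10-20%, 0=0%) read 13 d after spraying. Spray: acetone/water 50:50 + 0.5% Tween 20, 1000 g/ha unless stated.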

[8] = system: Amaranthus retoflexus (AMARE); assay: Post-emergence herbicidal test; conditions: 1000 g/ha unless otherwise stated, evaluated after 13 days
Procedure, shortened: as §1

[9] = system: Echinochloa crus-galli (ECHCG); assay: Post-emergence herbicidal test; conditions: 1000 g/ha unless otherwise stated, evaluated after 13 days
Procedure, shortened: as §1

[10] = system: Ipomoea hederacea (IPOHE); assay: Post-emergence herbicidal test; conditions: 1000 g/ha unless otherwise stated, evaluated after 13 days
Procedure, shortened: as §1

Setaria faberi (SETFA) [11] = assay: Post-emergence herbicidal test; conditions: 1000 g/ha unless otherwise stated, evaluated after 13 days
Procedure, shortened: as §1

Zea mays (ZEAMX) [12] = assay: Post-emergence herbicidal test; conditions: 1000 g/ha unless otherwise stated, evaluated after 13 days
Procedure, shortened: as §1

Structure (SMILES)	percentage damage caused to the plant, five-point scale, AMARE [1]	percentage damage caused to the plant, five-point scale, SETFA (Setaria faberi (SETFA) [2])	percentage damage caused to the plant, five-point scale, ECHCG [3]	percentage damage caused to the plant, five-point scale, IPOHE [4]	percentage damage caused to the plant, five-point scale, ABUTH [5]	percentage damage caused to the plant, five-point scale, ZEAMX (Zea mays (ZEAMX) [6])	percentage damage caused to the plant, ABUTH (five-point scale) [7]	percentage damage caused to the plant, AMARE (five-point scale) [8]	percentage damage caused to the plant, ECHCG (five-point scale) [9]	percentage damage caused to the plant, IPOHE (five-point scale) [10]	percentage damage caused to the plant, SETFA (five-point scale) (Setaria faberi (SETFA) [11])	percentage damage caused to the plant, ZEAMX (five-point scale) (Zea mays (ZEAMX) [12])
CCOC(=O)c1nn(-c2ccc(OC(F)(F)F)cc2)c2ccc(OC)c(S(C)(=O)=O)c2c1=O [Compound P49, ethyl 6-methoxy-5-methylsulfonyl-4-oxo-1-[4-(trifluoromethoxy)phenyl]cinnoline-3-carboxylate]	0 (0=0%)	0 (0=0%)	0 (0=0%)	0 (0=0%)	0 (0=0%)	0 (0=0%)	0 (0=0%)	0 (0=0%)	1 (1=10-20%)	1 (1=10-20%)	1 (1=10-20%)	0 (0=0%)
CS(=O)(=O)c1cccc2c1c(=O)c(C(=O)OCCC#N)nn2-c1ccc(OC(F)(F)F)cc1 [Compound P73, 2-cyanoethyl 5-methylsulfonyl-4-oxo-1-[4-(trifluoromethoxy)phenyl]cinnoline-3-carboxylate]	0 (0=0%)	5 (5=81-100%)	3 (3=41-60%)	0 (0=0%)	0 (0=0%)	0 (0=0%)	0 (0=0%)	0 (0=0%)	3 (3=41-60%)	1 (1=10-20%)	4 (4=61-80%)	1 (1=10-20%)
CCOC(=O)c1nn(-c2ccc(OC(F)(F)F)cc2)c2cc(Br)cc(S(C)(=O)=O)c2c1=O [Compound P11, ethyl 7-bromo-5-methylsulfonyl-4-oxo-1-[4-(trifluoromethoxy)phenyl]cinnoline-3-carboxylate]	0 (0=0%)	0 (0=0%)	0 (0=0%)	0 (0=0%)	0 (0=0%)	0 (0=0%)	1 (1=10-20%)	0 (0=0%)	0 (0=0%)	0 (0=0%)	1 (1=10-20%)	1 (1=10-20%)
CCS(=O)(=O)c1cccc2c1c(=O)c(C(=O)O)nn2-c1ccc(OC(F)(F)F)cc1 [Compound P27, 5-ethylsulfonyl-4-oxo-1-[4-(trifluoromethoxy)phenyl]cinnoline-3-carboxylic acid]	0 (0=0%)	3 (3=41-60%)	0 (0=0%)	0 (0=0%)	0 (0=0%)	1 (1=10-20%)	1 (1=10-20%)	0 (0=0%)	2 (2=21-40%)	0 (0=0%)	2 (2=21-40%)	1 (1=10-20%)
CCOC(=O)c1nn(-c2ccc(OC(F)(F)F)cc2)c2cc(F)cc(S(C)(=O)=O)c2c1=O [Compound P52, ethyl 7-fluoro-5-methylsulfonyl-4-oxo-1-[4-(trifluoromethoxy)phenyl]cinnoline-3-carboxylate]	1 (1=10-20%)	4 (4=61-80%)	3 (3=41-60%)	0 (0=0%)	1 (1=10-20%)	0 (0=0%)	1 (1=10-20%)	1 (1=10-20%)	2 (2=21-40%)	0 (0=0%)	2 (2=21-40%)	1 (1=10-20%)
CCOC(=O)c1nn(-c2ccc(OC(F)(F)F)cc2)c2cccc([S+](C)[O-])c2c1=O (stereo not drawn) [Compound P28, ethyl 5-methylsulfinyl-4-oxo-1-[4-(trifluoromethoxy)phenyl]cinnoline-3-carboxylate]	0 (0=0%)	0 (0=0%)	0 (0=0%)	0 (0=0%)	0 (0=0%)	0 (0=0%)	1 (1=10-20%)	1 (1=10-20%)	0 (0=0%)	0 (0=0%)	1 (1=10-20%)	0 (0=0%)
CCOC(=O)c1nn(-c2ccc(OC(F)(F)F)cc2)c2cc(C)cc(S(C)(=O)=O)c2c1=O [Compound P9, ethyl 7-methyl-5-methylsulfonyl-4-oxo-1-[4-(trifluoromethoxy)phenyl]cinnoline-3-carboxylate]	1 (1=10-20%)	4 (4=61-80%)	4 (4=61-80%)	1 (1=10-20%)	1 (1=10-20%)	1 (1=10-20%)	1 (1=10-20%)	1 (1=10-20%)	4 (4=61-80%)	1 (1=10-20%)	3 (3=41-60%)	1 (1=10-20%)
C=CC(C)OC(=O)c1nn(-c2ccc(OC(F)(F)F)cc2)c2cccc(S(C)(=O)=O)c2c1=O (stereo not drawn) [Compound P64, 1-methylallyl 5-methylsulfonyl-4-oxo-1-[4-(trifluoromethoxy)phenyl]cinnoline-3-carboxylate]	0 (0=0%)	5 (5=81-100%)	4 (4=61-80%)	0 (0=0%)	0 (0=0%)	0 (0=0%)	1 (1=10-20%)	0 (0=0%)	3 (3=41-60%)	0 (0=0%)	4 (4=61-80%)	1 (1=10-20%)
